Laboratory results from paper PMC3289605, “A Novel G Protein-Coupled Receptor of Schistosoma mansoni (SmGPR-3) Is Activated by Dopamine and Is Widely Expressed in the Nervous System” (PLoS Neglected Tropical Diseases, 2012).
Like-named read-outs stand apart in the source and are kept apart here.

Assays:
SmGPR-3 [1] = molecular target: T1, SmGPR-3 (Schistosoma mansoni, UniProt C4Q8W8); assay: cell-based
T1 sequence (C4Q8W8 1-497): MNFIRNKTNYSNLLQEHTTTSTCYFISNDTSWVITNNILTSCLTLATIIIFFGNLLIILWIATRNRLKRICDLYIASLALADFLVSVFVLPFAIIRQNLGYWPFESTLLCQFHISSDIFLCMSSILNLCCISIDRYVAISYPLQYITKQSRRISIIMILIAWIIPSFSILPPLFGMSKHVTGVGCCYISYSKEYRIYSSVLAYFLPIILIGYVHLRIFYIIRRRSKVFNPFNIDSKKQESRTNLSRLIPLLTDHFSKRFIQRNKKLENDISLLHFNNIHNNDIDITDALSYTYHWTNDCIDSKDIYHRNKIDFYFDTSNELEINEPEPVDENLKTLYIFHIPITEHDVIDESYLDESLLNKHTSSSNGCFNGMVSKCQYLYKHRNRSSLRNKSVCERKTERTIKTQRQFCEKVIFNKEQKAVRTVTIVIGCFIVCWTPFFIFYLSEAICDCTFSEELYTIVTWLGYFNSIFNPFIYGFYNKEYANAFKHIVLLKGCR
Text: (§1) The SmGPR-3 coding sequence was sub-cloned between the NcoI/XbaI restriction sites of the yeast expression vector Cp4258 (kindly provided by Dr J. Broach, Princeton University, NJ, USA). The functional expression assay was adapted from the protocol of Wang and colleagues as described, [30]. The receptor was expressed in Saccharomyces cerevisiae strain YEX108 (MATα PFUS1-HIS3 PGPA1-Gαq(41)-GPA1-Gaq(5) can1 far1Δ 1442 his3 leu2 lys2 sst2Δ2 ste14::trp1::LYS2 ste18Δ6-3841 ste3Δ1156 tbt1-1 trp1 ura3; kindly provided by J. Broach, Princeton University, NJ, USA). This strain expresses the HIS3 reporter gene under the control of the FUS1 promoter and contains an integrated copy of a chimeric Gα gene in which the first […] and last five codons of native yeast Gα (GPA1) were replaced with those of human Gαq. […] YPD culture medium (1% yeast extract, 2% peptone and 2% dextrose) was used to culture YEX108 strain, according to standard conditions. The lithium acetate method was performed to transform yeast with either empty Cp4258 vector (mock) or Cp4258/SmGPR-3 expression plasmid, using 200 µl mid-log phase cells, 200 µg carrier single stranded DNA (Invitrogen) and 1 µg plasmid. Positive transformants were selected on synthetic complete (SC) 2% glucose solid medium lacking leucine (SC/leu^−). For agonist assays, single colonies of transformants were cultured overnight in SC/leu^− liquid medium at 250 rpm/30°C. The next day, cells were washed four times in SC 2% glucose liquid medium that lacked both leucine and histidine (SC/leu^−/his^−). Cells were finally resuspended in SC/leu^−/his^− medium supplemented with 50 mM 3-(N-morpholino) propanesulfonic acid (MOPS), pH 6.8 and 1.5 mM 3-Amino-1, 2, 4-Triazole (3-AT). The latter was used to reduce basal growth due to endogenous background signalling as it inhibits the gene product of HIS3 [29]. Aliquots containing approximately 3,000 cells were added to individual wells of a 96-well plate containing test agonist or vehicle plus additional medium for a total reaction volume of 100 µl. The plates were incubated at 30°C for 22–26 h, after which 10 µl of Alamar blue (Invitrogen) was added to each well. The plates were returned to the 30°C incubator until the Alamar blue color started to shift to pink (approximately 1–4 h) and fluorescence (560 nm excitation/590 nm emission) was measured at 30°C every hour up to three hours, using a plate fluorometer (FlexStation II, Molecular Devices, US). Antagonist assays were done in a similar way, except that each well contained 10^−4 M agonist (dopamine) and the antagonist at the specified concentration. Data analyses and dose-response curve fits were performed using Prism v5.0 (GraphPad software Inc.).
Functional expression assays were performed in yeast. […] The full-length SmGPR-3 cDNA was ligated to the Cp4258 vector and the recombinant plasmid was transformed into Saccharomyces cerevisae to test for receptor activity. We used a genetically modified S. cerevisae strain that is designed for GPCR activity assays. The yeast is auxotrophic for histidine and expresses a HIS3 reporter gene under the control of the FUS1 promoter. Activation of a recombinant GPCR in this system increases expression of the HIS3 reporter via the yeast's endogenous pheromone response, which in turn allows the cells to grow in selective histidine-deficient medium. Thus receptor activity can be quantified based on measurements of yeast growth in the selective medium, using a fluorometric Alamar Blue assay. Cells transformed with either empty vector (mock control) or SmGPR-3 were initially tested with all different biogenic amines, each at 2×10^−4 M (Fig. 3A).
Yeast cells transformed with empty plasmid were used as a negative control (mock).

S. mansoni schistosomula = assay: Motor activity of schistosomula in culture (frequency of body length changes); type: cell-based, Schistosoma mansoni; conditions: for concentration at which significant inhibition of motility was observed: range tested 10^−7 M–10^−4 M
Method: 3-day old in vitro transformed schistosomula were placed in individual wells of a 24-well plate (30–40 animals/well) in 300 µl of OPTI-MEM+10% dialyzed serum. Following an adaptation period of 15 min at room temperature, test substances were added at a final concentration of 100 µM or as indicated. Animals were monitored 5 min after drug addition by placing the 24-well plate on a compound microscope (Nikon, SMZ1500) equipped with a digital video camera (QICAM Fast 1394, mono 12 bit, Qimaging) and SimplePCI version 5.2 (Compix Inc.) for image acquisition. Images were obtained at a rate of ≈3 frames/s for a period of 1 minute and the data were analyzed with ImageJ software (version 1.41, NIH, USA). Cultured schistosomula display complex motor behaviours that are dominated by repeated changes in length, both shortening and elongation. To quantify this type of movement, we used the “Fit-Ellipse” command of ImageJ to draw best-fit ellipses of individual animals in each recorded frame. An estimate of body length was obtained by measuring the principal (“major”) axis of each ellipse, using calibrated units (µm), and the frequency of length changes during the observation period was calculated. Any change representing >10% of body length, whether an increase or decrease, was included in the calculation; changes ≤10% were disregarded. Between 12–15 animals were monitored per well and the experiment was repeated a minimum of 3 times. To monitor for possible drug induced toxicity, viability tests were performed routinely using the methylene blue dye exclusion assay described by Gold.
To explore this possibility we tested the effects of several SmGPR-3 agonists and antagonists on the motor activity of intact schistosomula in culture. […] We used a larval stage (schistosomula) instead of adult worms because the larvae are better suited for quantitative measurements of movement. […] To quantitate motor activity, we monitored individual schistosomula in the presence and absence of test substances, using a microscope equipped with a video camera and imaging software. Approximately 180 consecutive frames were recorded for each animal over 1 min of observation and the approximate length of the animal in each frame was measured in calibrated units (µm). […] To quantify the level of motor activity, we repeated experiments at different concentrations of each amine and then calculated the frequency of length changes, both decrease and increase for each individual animal during the 1 min of observation. Mean values were obtained from the average of 12–15 animals/experiment and each experiment was repeated a minimum of 3 times.
Figure 7 Effects of dopamine and related substances on schistosome motility. (A) In vitro transformed 3-day-old schistosomula were incubated with test drug, dopamine (DA) or epinine (EPN), each at (10^−4 M) or vehicle (CT, control). Animals were treated for 5 min at room temperature, after which they were examined with a compound microscope equipped with a digital video camera and SimplePCI (Compix Inc.) for image acquisition. Images were recorded for 1 minute (∼3 frames/second) and an estimate of body length in µm was obtained for each animal in every frame. Each tracing shown is of an individual animal and is representative of 12–15 larvae per experiment and 3–4 independent experiments per treatment.

[2] = tested on: Saccharomyces cerevisiae strain YEX108; assay: Drug-induced toxicity control: yeast growth in histidine-supplemented medium; type: cell-based; conditions: medium supplemented with histidine (100 µM); drug-treated cells
Method: (§2) Next we examined the effects of classical (mammalian) dopaminergic and other BA antagonists on the activity of SmGPR-3. Drugs were tested initially at a single concentration of 100 µM (10 µM in the case of flupenthixol) in the presence of 100 µM DA (Fig. 4A). […] Those drugs that produced significant inhibition (>50%) in the initial screen were subsequently tested at different concentrations to obtain dose response curves (Fig. 4B–F). […] To test this possibility, we repeated the assay in medium supplemented with histidine (100 µM), which enables cell growth irrespective of receptor activation.
Figure 4 Antagonist effects on SmGPR-3 activity. (A) Yeast YEX108 auxotrophic his strain expressing SmGPR-3 was incubated with agonist (DA, 100 µM) and test antagonist or vehicle. Antagonists were tested at 100 µM except for flupenthixol, which was used at 10 µM. The data were normalized relative to the control sample that contained 100 µM DA but no antagonist. To test for drug induced toxicity, assays were repeated in the presence of 100 µM test antagonist in histidine-supplemented (his+) medium, which enables the cell to grow irrespective of receptor activation (His +ve control; see text for details). Abbreviations are as follows: SPIP, spiperone; PROP, propanolol; CLZP, clozapine; BUSP, buspirone; MINS, mianserin; CPRH, cyproheptadine; FLPX, flupenthixol; PRMZ, promethazine; HLRD, haloperidol. […] The error bars are the means ± SEM for 3–4 experiments and at least 2 clones (in triplicates).

SmGPR-3 [3] = molecular target: T1, SmGPR-3; assay: cell-based; conditions: for inhibition of SmGPR-3 activity: highest concentration tested, in the presence of 100 µM DA
Text: as §1, §2
Figure 4 Antagonist effects on SmGPR-3 activity. (A) Yeast YEX108 auxotrophic his strain expressing SmGPR-3 was incubated with agonist (DA, 100 µM) and test antagonist or vehicle. Antagonists were tested at 100 µM except for flupenthixol, which was used at 10 µM.

SmGPR-2 = tested on: SmGPR-2; set-up: method as in PMID 20430030; conditions: cited from earlier work
[4] = each amine at 2×10^−4 M, relative to no drug control
[5] = 50 µM, compared to untreated larvae
[6] = 100 µM, 3-day-old schistosomula, 5 min after drug addition
[7] = 500 µM, compared to untreated larvae
[8] = drug 100 µM in the presence of 100 µM DA

In the case of `CNCCc1ccc(O)c(O)c1` [epinine], the EC50 (SmGPR-3 [1]) is reported as 28.5 µM, the “SmGPR-3 activation by biogenic amine” value (SmGPR-3 [1]; [4]) is reported as “selectively activated” and the “effect on motor activity of schistosomula” value (from here on “effect on motor activity”) (S. mansoni schistosomula; [5]) is reported as “decrease in motility”. For the same compound, the “effect on motor activity” value (S. mansoni schistosomula; [6]) was “virtual paralysis” and the “concentration at which significant inhibition of motility was observed” value (S. mansoni schistosomula) was at least 10 µM.

For `O=C(CCCN1CCC(O)(c2ccc(Cl)cc2)CC1)c1ccc(F)cc1` [haloperidol], the “yeast growth in the presence of histidine (toxicity control)” value (shortened to “yeast growth in the presence”) [2] was “normal or nearly normal growth” and the “effect on motor activity” value (S. mansoni schistosomula; [7]) was “no significant motor effects”.

With `CN1CCC(=C2c3ccccc3C=Cc3ccccc32)CC1` [cyproheptadine] the “inhibition of SmGPR-3 activity” value (SmGPR-3 [3]) was “≈ 70%”.

In the case of `CN1CCN2c3ccccc3Cc3ccccc3C2C1` (stereo not shown) [mianserin], the “inhibition of SmGPR-3 activity” value (SmGPR-3 [3]) is reported as “≈ 70%”.

With `CNC[C@H](O)c1ccc(O)c(O)c1` [adrenaline] the “SmGPR-3 activation by biogenic amine” value (SmGPR-3 [1]) was “stimulated SmGPR-3 activity but not to the same extent as dopamine or epinine” and the “effect on motor activity” value (S. mansoni schistosomula; [7]) was “decrease in motility”.

With `NC[C@H](O)c1ccc(O)c(O)c1` [noradrenaline] the “SmGPR-3 activation by biogenic amine” value (SmGPR-3 [1]; [4]) was “stimulated SmGPR-3 activity but not to the same extent as dopamine or epinine”.

For `CN1CCN(C2=Nc3cc(Cl)ccc3Nc3ccccc32)CC1` [clozapine], the “effect on SmGPR-3 activity” value (SmGPR-3 [3]; [8]) was “modest or no significant inhibition”.

In the case of `OCCN1CCN(CCC=C2c3ccccc3Sc3ccc(C(F)(F)F)cc32)CC1` [flupenthixol], the IC50 (SmGPR-3 [3]) is reported as 3.9 µM, the “yeast growth in the presence” value [2] is reported as “normal or nearly normal growth” and the “effect on motor activity” value (S. mansoni schistosomula; [5]) is reported as “significant decrease in motor activity”. For the same compound, the “inhibition of SmGPR-2” value (SmGPR-2) was “most potent inhibitors of SmGPR-2”.

In the case of `CNCC(O)c1ccc(O)c(OC)c1` (stereo not shown) [metanephrine], the “SmGPR-3 activation by biogenic amine” value (SmGPR-3 [1]; [4]) is reported as “stimulated SmGPR-3 activity but not to the same extent as dopamine or epinine”, the “increase in the frequency of body wall movements” value (S. mansoni schistosomula; 500 µM) is reported as “≈ 3 fold” and the “effect on motor activity” value (S. mansoni schistosomula; [7]) is reported as “marked hyperactivation”.

With `CC(CN1c2ccccc2Sc2ccccc21)N(C)C` (stereo not shown) [promethazine] the IC50 (SmGPR-3 [3]) was 28 µM, the “yeast growth in the presence” value [2] was “normal or nearly normal growth” and the “effect on motor activity” value (S. mansoni schistosomula; [5]) was “significant decrease in motor activity”. The “inhibition of SmGPR-2” value (SmGPR-2) was “most potent inhibitors of SmGPR-2”.

For `NCCc1ccc(O)c(O)c1` [dopamine], the EC50 (SmGPR-3 [1]) was 31 µM, the “SmGPR-3 activation by biogenic amine” value (SmGPR-3 [1]; [4]) was “selectively activated” and the “effect on motor activity” value (S. mansoni schistosomula; [5]) was “decrease in motility”. For the same compound, the “effect on motor activity” value (S. mansoni schistosomula; [6]) was “decreased both the amplitude and frequency of contractions” and the “concentration at which significant inhibition of motility was observed” value (S. mansoni schistosomula) was at least 10 µM.

For `CC(C)NCC(O)COc1cccc2ccccc12` (stereo not shown) [propranolol], the “effect on SmGPR-3 activity” value (SmGPR-3 [3]; [8]) was “no effect”.

For `O=C(CCCN1CCC2(CC1)C(=O)NCN2c1ccccc1)c1ccc(F)cc1` [spiperone], the “enhancement of SmGPR-3 activity” value (SmGPR-3 [3]; [8]) was about 2 fold.
